Earlier results as cited in patent publication US20170274058A1, “Cancer Stem Cell-Targeted Cancer Therapy” (priority 2006, published 2017).
Counter-ions that a name gives are not always drawn.

System: cancer stem cells, including leukemia stem cells
Details: background statement, references in Table 1

Question: With `Cc1ccc(NC(=O)c2ccc(CN3CCN(C)CC3)cc2)cc1Nc1nccc(-c2cccnc2)n1` [Gleevec®, imatinib mesylate] as the compound, how does the “resistance of cancer stem cells to the therapy” value (from here on “resistance of cancer stem cells”) read?
Answer: relatively resistant

Question: Which “resistance of cancer stem cells” value does the source give for `CC(C)C[C@H](NC(=O)[C@H](Cc1ccccc1)NC(=O)c1cnccn1)B(O)O` [Velcade®] here?
Answer: relatively resistant

Question: For `COc1cccc2c1C(=O)c1c(O)c3c(c(O)c1C2=O)C[C@@](O)(C(C)=O)C[C@@H]3O[C@H]1C[C@H](N)[C@H](O)[C@H](C)O1` [daunorubicin], which “resistance of cancer stem cells” value is on record?
Answer: relatively resistant

Question: Which “resistance of cancer stem cells” value does the source give for `Nc1ccn([C@@H]2O[C@H](CO)[C@@H](O)[C@@H]2O)c(=O)n1` [Ara-C, cytarabine] here?
Answer: relatively resistant
